Where two headings read alike, the source gives them in different places.
Legend:
tubulin [1] = test: fluorescence-based tubulin polymerization assay; type: biochemical, Bos taurus; conditions: read-out: Anti-tubulin activity (IC50)
tubulin [2] = test: fluorescence-based tubulin polymerization assay; type: biochemical, Bos taurus; conditions: read-out: Anti-tubulin activity (IC50); remark: listed apart in the source

| IC50 (tubulin [1]) | IC50 (tubulin [2]) | Compound |
| --- | --- | --- |
| 2.64 µM | – | COc1cccc(NC(=O)c2cccc3c2Nc2cccc(Cl)c2N3C)c1 [8a, 6-Chloro-N-(3-methoxyphenyl)-5-methyl-5,10-dihydrophenazine-1-carboxamide] |
| 2.36 µM | – | CN1c2cccc(C(=O)Nc3cccnc3)c2Nc2cccc(Cl)c21 [8l, 6-Chloro-5-methyl-N-(pyridin-3-yl)-5,10-dihydrophenazine-1-carboxamide] |
